These results are taken from publication PMC7929976, “Eriodictyol as a Potential Candidate Inhibitor of Sortase A Protects Mice From Methicillin-Resistant Staphylococcus aureus-Induced Pneumonia” (Frontiers in Microbiology, 2021).

The target in this test is T1, Sortase A (SrtA) (Staphylococcus aureus, UniProt Q2FV99).
T1 construct: pET28a-SrtA, recombinant, nickel-purified
Briefly: FRET cleavage assay with purified recombinant SrtA; reversible by dilution; binding supported by fluorescence quenching (KA […] L/mol). The class given is biochemical.

T1 sequence (Q2FV99 whole entry): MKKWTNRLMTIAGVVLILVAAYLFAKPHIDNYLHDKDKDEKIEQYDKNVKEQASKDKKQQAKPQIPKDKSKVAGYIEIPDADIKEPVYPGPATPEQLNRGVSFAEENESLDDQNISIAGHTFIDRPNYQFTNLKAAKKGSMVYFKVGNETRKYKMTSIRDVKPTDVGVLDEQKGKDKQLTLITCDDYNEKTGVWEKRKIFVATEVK

For the compound `O=C1C[C@@H](c2ccc(O)c(O)c2)Oc2cc(O)cc(O)c21` [eriodictyol], the IC50 (commonly the concentration that gives 50% inhibition) is 7.73 µM.
